Laboratory results from EP0741709B1, “AROMATIC 2-AMINO-IMIDAZOLE DERIVATIVES AS ALPHA-2A ADRENOCEPTOR AGONISTS” (Allergan Sales, Inc., priority 1994, dated 1995).

Biological target: T1, human α2C (Homo sapiens, UniProt P18825)
T1 construct: expressed in transfected cells; host or cells: CHO (CHO-C4)
T1 sequence (P18825 1-462): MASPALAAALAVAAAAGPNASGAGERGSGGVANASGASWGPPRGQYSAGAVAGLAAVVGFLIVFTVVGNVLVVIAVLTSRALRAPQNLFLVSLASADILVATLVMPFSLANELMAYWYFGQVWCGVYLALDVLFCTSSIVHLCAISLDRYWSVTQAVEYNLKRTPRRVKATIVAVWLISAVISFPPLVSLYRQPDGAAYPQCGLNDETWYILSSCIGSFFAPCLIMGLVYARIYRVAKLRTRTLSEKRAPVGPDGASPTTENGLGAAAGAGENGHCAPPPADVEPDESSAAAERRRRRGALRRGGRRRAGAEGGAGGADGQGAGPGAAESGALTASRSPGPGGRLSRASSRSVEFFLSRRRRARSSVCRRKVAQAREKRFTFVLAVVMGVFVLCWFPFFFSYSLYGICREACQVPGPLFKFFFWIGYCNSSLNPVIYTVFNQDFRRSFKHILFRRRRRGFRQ
Assay: Receptor binding assay, [3H]rauwolscine, CHO-C4 cell membranes
Settings: 22°C, 30 minutes
Description: Cell preparation: Chinese hamster ovary (CHO) cells expressing the human α2A and human α2C (CHO-C10 and CHO-C4 respectively) receptors and CHO cells (CHO-RNG) expressing the rat α2B adrenoceptor were grown to near confluence in Dulbecco's modified Eagle's medium supplemented with 10% fetal bovine serum using standard cell culture methods. Cells were harvested by scraping and placed into cold buffer of the following composition: 50 mM Tris-HCl, 5 mM EDTA, pH 7.4). Cells were then homogenized with a Polytron homogenizer for 2 X 10 sec at setting #7, and centrifuged for 20 minutes at 49,000 x g. The pellet fraction was washed (resuspended in Tris-HCl, pH 8 buffer and centrifuged for 15-20 minutes at 49,000 x g) 2 times and stored at -100°C until binding assay.
Binding Studies: The radioligands [^3H]rauwolscine (specific activity 80 Ci/mmol) and [^3H]prazosin (specific activity 76 Ci/mmol) were obtained from New England Nuclear, Boston, MA. Frozen membrane pellet was resuspended in 25 mM glycine/glycine, pH 7.5 and incubated with radioligand under the following conditions: CHO-C10, CHO-RNG, CHO-C4-[^3H]rauwolscine, 22°C, 30 minutes; RKC-[^3H]rauwolscine, 0°C, 120 minutes; and, HCC-[^3H]prazosin, 22°C, 30 minutes in a final volume of 500 ul. At the end of the incubation period, the samples were filtered through glass filters (Whatman GF/B) in a 96 well cell harvester and rapidly washed four times with 4 mL of iced-cold 50 mM Tris-HCl buffer. The filters were then oven dried and transferred to scintillation vials containing 10 mL of Beckman's Ready Protein® scintillation cocktail for counting. Specific binding defined by 10 uM phentolamine for competition studies were as follows: 2.4 nM [^3H]brimonidine-RbICB 62%; 2.4 nM [^3H]rauwolscine-RbICB 75%; 2 nM [^3H]rauwolscine-RbKc 88%; 0.3 nM [^3H] rauwolscine-CHO-C10 99%; 0.4 nM [^3H]rauwolscine-CHO-RNG 99%, 0.3 nM [^3H]prazosin 87%; and 1 nM [^3H]rauwolscine-CHO-C4 90%. Protein concentrations were determined with a protein assay kit from Bio Rad. Binding isotherms, equilibrium dissociation and affinity constants were analyzed and determined by the non-linear least squares curve fitting programs EBDA (BioSoft) or AccuFit Competition/Saturation by Beckman.
The radioligands [^3H)rauwolscine (specific activity 80 Ci/mmol) and [^3H]prazosin (specific activity 76 Ci/mmol) were obtained from New England Nuclear, Boston, MA. Frozen membrane pellet was resuspended in 25 mM glycine/glycine, pH 7.4 and incubated with radioligand under the following conditions: CHO-C10, CHO-RNG, CHO-C4-[^3H]rauwolscine, 22°C, 30 min.; and, HCC-[^3H]prazosin, 22°C, 30 minutes in a final volume of 500 ul. At the end of the incubation period, the samples were filtered through glass fiber filters (Whatman GF/B) in a 96 well cell harvester and rapidly washed four times with 4 mL of iced-cold 50 mM Tris-CHl buffer. The filters were then oven dried and transferred to scintillation vials containing 5 mL of Beckman's Ready Protein® scintillation cocktail for counting. Specific binding defined by 10 uM phentolamine for competition studies were as follows: 0.3 nM[^3H] rauwolscine-CHO-C10 99%; 0.4 nM [^3H]rauwolscine-CHO-RNG 99%, and 0.3 nM [^3H] prazosin-HCC 87%. Protein concentrations were determined with a protein assay kit from Bio Rad. Binding isotherms, equilibrium dissociation and affinity constants were analyzed and determined by the non-linear least squares curve fitting programs AccuFit Competition/Saturation by Beckman.

Clc1ccccc1Nc1ncc[nH]1
Ki: 2250 nM

Clc1cccc(Cl)c1Nc1ncc[nH]1
Ki: 1120 nM

Cc1c(Nc2ncc[nH]2)ccc2c1NCCO2
Ki: 229 nM

c1ccc(Nc2ncc[nH]2)cc1
Ki: 3240 nM

c1cc2c(c(Nc3ncc[nH]3)c1)CCCC2
Ki: 252 nM

Cc1c(Nc2ncc[nH]2)ccc2c1OCCO2
Ki: 19 nM

Brc1ccccc1Nc1ncc[nH]1
Ki: 2390 nM

COc1ccc(Nc2ncc[nH]2)c(C)c1
Ki: 512 nM

Brc1c(Nc2ncc[nH]2)ccc2nccnc12
Ki: 9670 nM

Cc1ccccc1Nc1ncc[nH]1
Ki: 577 nM
